Data taken from patent US20260015341A1, “PI3K INHIBITOR, PREPARATION METHOD THEREFOR, AND USE THEREOF” (HINOVA PHARMACEUTICALS INC., priority 2022, published 2026).

Columns and labels:
MDA-MB-453 cells = assay: Pharmacodynamic evaluation in NOD SCID mouse model with subcutaneous xenograft tumor of MDA-MB-453 cells; format: in vivo; conditions: oral, twice a day
Method: Experimental Example 6: Pharmacodynamic Evaluation of the Compound According to the Present Invention in NOD SCID Mouse Model with Subcutaneous Xenograft Tumor of MDA-MB-453 Cells
MDA-MB-453 cell lines were cultured in Leibovitz's L-15 medium+10% fetal bovine serum+1% […] at 37° C. under 5% CO2, and passaged once a week. When the cell saturation was between 80% and 90%, and the required quantity was reached, the cells were collected, counted, and inoculated.
When the number of cells in the logarithmic growth phase reached the required amount for the experiment, the cells were collected, and centrifuged at 1000 rpm for 5 minutes to remove the supernatant. The cells were resuspended in the medium, and counted using a cell counter. Based on the counting results, the original solution was diluted to obtain cell suspension at a concentration of 1*10^8 cells/mL. The cell viability was 94.55%, P14 generation. The diluted cell suspension and matrix gel were diluted in a 1:1 ratio, and after mixing, placed on ice. a 1 mL sterile syringe was used to transfer the suspension. 0.2 mL of cell suspension was subcutaneously inoculated into the right axilla of each mouse. Each mouse was inoculated with 1*10^7 MDA-MB-453 cells.
After inoculation, the tumor growth state was observed daily. When the average volume reached about 157.14 mm^3, mice were randomly divided into groups based on tumor size and body weight for administration. The same dose of solvent was given to the control group. The day on which tumor cells were inoculated was defined as Day 0.
The health and mortality status of animals was daily monitored, including tumor growth, activity ability, diet, weight, eyes, hair, and other abnormal behaviors. Body weight was measured daily, while tumor volume was measured twice a week. The tumor volume was measured using a vernier caliper, and the formula is TV=0.5 a×b^2, wherein a is the long diameter of the tumor, and b is the short diameter of the tumor. After reaching the experimental endpoint, plasma samples were collected from each group at pre-determined time points for determining the plasma concentration. After euthanizing mice, tumors were collected, photographed, weighed, and frozen.
Relative tumor proliferation rate, T/C (%), refers to the percentage ratio of tumor volume or weight between the treatment group and the control group at a certain time point. The calculation formula is: T/C %=TRTV/CRTV×100%
wherein, TRTV: the average relative tumor volume (RTV) of the treatment group; CRTV: the average relative tumor volume of the control group; (RTV): RTV=Vt/V0, V0 is the tumor volume of the animal at the time of grouping, and Vt is the tumor volume of the animal after treatment. […]

MCF-10A cells = assay: Inhibitory effects on the proliferation of MCF-10A cells (CCK8); format: cell-based; conditions: Homo sapiens, 144 h, 6 days
Summary of the method: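 MCF-10A cells seeded at 500 cells/well, cultured 24 h, then exposed to 9-point 3-fold dilutions from 10 μM final for 6 days at 37° C., 5% CO2. Viability by CCK8, 2–3 h, OD450 read; IC50 reported.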

Compound | TGI % after administrating for 21 days (MDA-MB-453 cells; 25 mg/kg) | TGI % after administrating for 21 days (MDA-MB-453 cells; 75 mg/kg) | IC50 (MCF-10A cells)
Cc1cc([C@@H](C)Nc2ccc(Cl)nc2C(=O)O)c2nc(-c3ccc(F)cn3)n(C)c(=O)c2c1 [Compound 66, (R)-6-chloro-3-((1-(2-(5-fluoropyridin-2-yl)-3,6-dimethyl-4-oxo-3,4-dihydroquinazolin-8-yl)ethyl)amino)pyridinecarboxylic Acid] | 71% | 87% | > 5 µM
C[C@@H](Nc1ccc(Cl)nc1C(=O)O)c1cc(F)cc2c(=O)n(C)c(-c3ccc(F)cn3)nc12 [Compound 74] | 74% | 85% | > 5 µM
